Usually MIC stands for the lowest concentration found to suppress growth. Low values mean inhibition by little substance, high ones a need for much substance.

≈ marks a conversion by molar mass, not a printed value. Where “and” joins values, the source holds several entries; their conditions need not be identical. Equal values may be shown once.

Among the test systems are Escherichia coli LEC001; Klebsiella pneumoniae M6; Staphylococcus aureus; Escherichia coli; Escherichia coli W3110; Enterococcus faecalis; Escherichia coli HB101; Helicobacter pylori; Escherichia coli ML-35p; Saccharomyces cerevisiae; Listeria ivanovii; Bacillus megaterium.
Experiment in all cases: ≥ marks a high value that may be exact or a test limit, other limits are often not marked, values filed in µg/mL are converted to µM
Experiment [1] deals with Acinetobacter baumannii AYE.
For experiment [2], the system named is Pseudomonas aeruginosa PAO1.
For experiment [3], the system named is Staphylococcus aureus USA 300.
The test system of experiment [4] is Staphylococcus aureus ATCC 9144.
The subject of experiment [5] is Staphylococcus aureus NCTC 13616.
Experiment [6] concerns Klebsiella pneumoniae NCTC 13368.
For experiment [7], the system named is Escherichia coli NCTC 12923.
Experiment [8] deals with Pseudomonas aeruginosa NCTC 13437.
The test system of experiment [9] is Acinetobacter baumannii ATCC 17978.
The subject of experiment [10] is Streptococcus mutans UA159.
Experiment [11] relates to Pseudomonas aeruginosa PAK.
The subject of experiment [12] is Streptococcus sobrinus ATCC 33478.
In experiment [13] the test system is Streptococcus sanguinis NY101.
The test system of experiment [14] is Pseudomonas aeruginosa ATCC 27853.
For experiment [15], the system named is Corynebacterium glutamicum ATCC 13032.
For experiment [16], the system named is Vibrio anguillarum FT1801.
The test system of experiment [17] is Escherichia coli ATCC 25922.
In experiment [18] the test system is Legionella longbeachae ATCC 33484.
Experiment [19] relates to Acinetobacter baumannii ATCC 19606.
The subject of experiment [20] is Legionella pneumophila ATCC 33155.
In experiment [21] the test system is Staphylococcus aureus ST1065.
Experiment [22] concerns Escherichia coli ATCC 35218.
Experiment [23] deals with Streptococcus pyogenes ATCC 19615.
The test system of experiment [24] is Staphylococcus aureus ATCC 43300.
The test system of experiment [25] is Salmonella enterica subsp. enterica serovar Enteritidis.
In experiment [26] the test system is Candida albicans ATCC 90028.
Experiment [27] relates to Enterococcus faecalis ATCC 29212.
The test system of experiment [28] is Klebsiella pneumoniae ATCC 13883.
For experiment [29], the system named is Legionella feeleii ATCC 35072.
Experiment [30] has as its system Staphylococcus aureus ATCC 25923.
The subject of experiment [31] is Staphylococcus aureus ATCC BAA-44.
Experiment [32] deals with Legionella pneumophila Paris.

As for `CC[C@H](C)[C@H](NC(=O)[C@H](CCCCN)NC(=O)[C@H](CC(C)C)NC(=O)[C@H](C)NC(=O)[C@H](C)NC(=O)[C@H](CCCCN)NC(=O)[C@H](CC(C)C)NC(=O)[C@H](C)NC(=O)[C@H](CCCCN)NC(=O)CNC(=O)[C@H](CC(C)C)NC(=O)[C@H](Cc1ccccc1)NC(=O)[C@H](CO)NC(=O)CNC(=O)[C@H](Cc1ccccc1)NC(=O)CN)C(=O)NCC(=O)N[C@@H](C)C(=O)N[C@@H](CC(N)=O)C(=O)N[C@H](C(=O)N[C@@H](CC(C)C)C(=O)NCC(=O)NCC(=O)N[C@@H](C)C(=O)N1CCC[C@H]1C(=O)N[C@@H](CCC(N)=O)C(=O)N[C@@H](CCC(N)=O)C(=O)O)C(C)C` [GFGSFLGKALKAALKIGANVLGGAPQQ], the MIC was 3.06 µM (≈ 8 µg/mL) in experiment [1]; above 49 µM in [2]; 3.06 µM (≈ 8 µg/mL) in experiment [3]; 3.06 µM (≈ 8 µg/mL) in the experiment with Escherichia coli LEC001; 12.2 µM (≈ 32 µg/mL) in the experiment on Klebsiella pneumoniae M6; 1.53 µM (≈ 4 µg/mL) in experiment [4]. In addition, the MIC came out at 1.53 µM (≈ 4 µg/mL) in [5]; 12.2 µM (≈ 32 µg/mL) in experiment [6]; 3.06 µM (≈ 8 µg/mL) in [7]; 24.5 µM (≈ 64 µg/mL) in [8]; 6 µM (≈ 15.7 µg/mL) against Staphylococcus aureus; 1.53 µM (≈ 4 µg/mL) in experiment [9]. Moreover, the minimum inhibitory concentration (MIC) with Escherichia coli was 12.5 µM (≈ 32.7 µg/mL).
With `CC[C@H](C)[C@H](NC(=O)[C@H](Cc1ccccc1)NC(=O)[C@H](Cc1cnc[nH]1)NC(=O)[C@H](CCCCN)NC(=O)[C@@H](NC(=O)[C@H](Cc1ccccc1)NC(=O)[C@@H](NC(=O)[C@H](C)NC(=O)[C@H](CO)NC(=O)[C@H](Cc1ccccc1)NC(=O)[C@H](Cc1cnc[nH]1)NC(=O)[C@H](CC(C)C)NC(=O)[C@H](Cc1cnc[nH]1)NC(=O)[C@H](Cc1ccccc1)NC(=O)[C@H](Cc1cnc[nH]1)NC(=O)[C@@H](N)Cc1ccccc1)[C@@H](C)O)[C@@H](C)CC)C(=O)N[C@@H](Cc1cnc[nH]1)C(=O)N[C@@H](CCCN=C(N)N)C(=O)N[C@@H](Cc1ccccc1)C(N)=O` [FHFHLHFSATFIKHFIHRF], the MIC in the experiment with Escherichia coli W3110 is at least 50.6 µM; against Enterococcus faecalis, 25.3 µM (≈ 62.5 µg/mL); in [10] it was 6.48 µM (≈ 16 µg/mL); in experiment [11], at least 50.6 µM; in experiment [12], at least 101 µM; with Staphylococcus aureus it was 50.6 µM (≈ 125 µg/mL). The compound also had an MIC in experiment [13] of 25.3 µM (≈ 62.5 µg/mL).
As for `CC[C@H](C)[C@H](NC(=O)[C@@H]1CCCN1C(=O)[C@H](CCCCN)NC(=O)[C@@H]1CCCN1C(=O)[C@H](CCCN=C(N)N)NC(=O)CNC(=O)[C@@H]1CCCN1C(=O)[C@H](Cc1ccccc1)NC(=O)[C@@H]1CCCN1C(=O)[C@H](CCCN=C(N)N)NC(=O)[C@@H]1CCCN1C(=O)[C@H](CCCN=C(N)N)NC(=O)CNC(=O)[C@@H]1CCCN1C(=O)[C@H](CO)NC(=O)[C@@H]1CCCN1C(=O)[C@H](Cc1c[nH]c2ccccc12)NC(=O)[C@H](CCCN=C(N)N)NC(=O)[C@@H](N)CO)C(=O)N[C@@H](Cc1ccccc1)C(=O)N[C@@H](CCCN=C(N)N)C(=O)N1CCC[C@H]1C(=O)N[C@@H](CCCN=C(N)N)C(=O)N1CCC[C@H]1C(=O)N[C@H]1CSSC[C@@H](C(=O)N[C@@H](CC(=O)O)C(=O)N[C@@H](CCCN=C(N)N)C(=O)N[C@@H](Cc2c[nH]c3ccccc23)C(=O)O)NC(=O)[C@@H]2CCCN2C(=O)[C@@H]2CSSC[C@H](NC(=O)[C@H](CC(N)=O)NC1=O)C(=O)N[C@@H](Cc1ccc(O)cc1)C(=O)N[C@@H](C)C(=O)N1CCC[C@H]1C(=O)N1CCC[C@H]1C(=O)N2` [SRWPSPGRPRPFPGRPKPIFRPRPCNCYAPPCPCDRW], the MIC in experiment [14] was 6.3 µM (≈ 27.4 µg/mL); in experiment [4], at least 50 µM; against Escherichia coli HB101, 6.25 µM (≈ 27.2 µg/mL); in experiment [15], 0.8 µM (≈ 3.48 µg/mL); in [16], 6.3 µM (≈ 27.4 µg/mL); in experiment [17], 12.5 µM (≈ 54.3 µg/mL).
As for `CC[C@H](C)[C@H](NC(=O)CNC(=O)[C@H](CO)NC(=O)[C@H](CC(C)C)NC(=O)[C@@H](N)Cc1ccccc1)C(=O)N[C@H](C(=O)NCC(=O)N[C@@H](CCSC)C(=O)N[C@@H](CC(C)C)C(=O)NCC(=O)N[C@@H](CCCCN)C(=O)N[C@@H](CC(C)C)C(=O)N[C@@H](Cc1ccccc1)C(=O)O)C(C)C` [FLSGIVGMLGKLF], the MIC in experiment [18] was 1.56 µM (≈ 2.16 µg/mL); in experiment [19], 6 µM (≈ 8.29 µg/mL); in experiment [20] it was 3.12 µM (≈ 4.31 µg/mL); in experiment [14], 31 µM and 50 µM; in experiment [21], 6 µM (≈ 8.29 µg/mL); in experiment [22], 10 µM (≈ 13.8 µg/mL). The MIC in [23] was 6 µM (≈ 8.29 µg/mL); in [24] it was 6 µM (≈ 8.29 µg/mL); in experiment [25], 25 µM (≈ 34.5 µg/mL); in [26] it was 16 µM and 25 µM; in experiment [27], 11 µM (≈ 15.1 µg/mL); in experiment [28] it was 12 µM (≈ 16.6 µg/mL). Besides, the MIC in the experiment with Helicobacter pylori was 17.7 µM (≈ 24.4 µg/mL); in [29], 1.56 µM (≈ 2.16 µg/mL); in experiment [30] it was 3 µM (≈ 4.15 µg/mL); with Escherichia coli ML-35p it was 12 µM (≈ 16.6 µg/mL); in experiment [31], 6 µM (≈ 8.29 µg/mL); in the experiment on Saccharomyces cerevisiae, 8 µM and 12 µM. In addition, the minimal inhibitory concentration (MIC) was 1.56 µM (≈ 2.16 µg/mL) in experiment [32], 6 µM (≈ 8.29 µg/mL) against Listeria ivanovii, 2 µM (≈ 2.76 µg/mL) against Bacillus megaterium and 10 µM (≈ 13.8 µg/mL) in experiment [17].
